In ChEMBL document CHEMBL1201862, “PubChem BioAssay data set” (2004):
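How tested: cells in 96-well plates exposed to compound for 48 hours at five concentrations. The concentration for 50% growth inhibition is given as GI50.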 Calls of active or inactive are those of the source. Cut-off read from the data, not from the text of the source: active = GI50 up to about 1.1 µM and inactive = higher.

What was measured:
Experiment in all cases: NCI anticancer screen, dose series, 48 h
[1] = tested on: CAKI-1
[2] = tested on: CCRF-CEM
[3] = tested on: HCC 2998
[4] = tested on: HOP-92
[5] = tested on: M14
[6] = tested on: NCI-H522
[7] = tested on: SR
[8] = tested on: TK-10
[9] = tested on: A498
[10] = tested on: HL-60
[11] = tested on: RPMI-8226
[12] = tested on: UACC-257
[13] = tested on: Hs-578T
[14] = tested on: MCF7
[15] = tested on: MDA-MB-231
[16] = tested on: MDA-MB-435
[17] = tested on: NCI/ADR-RES
[18] = tested on: PC-3

Measured: GI50

CCC1(C)NN=c2s/c(=C/c3ccc(OC)cc3)c(=O)n2N1 (stereo not given)
inactive: [1] > 100 µM | [2] > 100 µM | [3] > 100 µM | [4] 17.6 µM | [5] > 100 µM | [6] > 100 µM | [7] > 100 µM | [8] > 100 µM

O=C(N/N=C/c1cc(-c2ccccc2Cl)c(-c2ccccc2Cl)o1)c1ccncc1
inactive: [9] > 100 µM | [1] > 100 µM | [10] 89.7 µM | [4] > 100 µM | [5] > 100 µM | [6] 83.6 µM | [11] 23.6 µM | [8] > 100 µM | [12] > 100 µM

CCOP(=O)(OCC)C1CC(C)OC1=O (stereo not given)
inactive: [9] > 100 µM | [1] > 100 µM | [2] > 100 µM | [3] > 100 µM | [10] > 100 µM | [5] > 100 µM | [11] > 100 µM | [8] > 100 µM | [12] > 100 µM

O=c1[nH]c2ccc([N+](=O)[O-])cc2nc1/C(=N/Nc1ccccc1)C(O)c1ccco1 (stereo not given)
inactive: [2] 16.6 µM | [3] 38.5 µM | [10] 25.2 µM | [4] > 100 µM | [5] > 100 µM | [6] 6.44 µM | [11] 34.7 µM | [7] 66.2 µM | [8] > 100 µM | [12] > 100 µM

CSC1=N/C(=C\c2ccccc2)C(=O)N1CN1CCCCC1
inactive: [9] 77.8 µM | [2] 52.5 µM | [4] 11.7 µM | [13] 36.4 µM | [5] 61.7 µM | [14] 24.6 µM | [15] 86.3 µM | [16] 49.7 µM | [6] 42.3 µM | [17] 20 µM | [18] 55.5 µM | [11] 27.4 µM | [7] 31.3 µM | [8] 99.3 µM

COc1c(C(=O)/C(=N/Nc2ccccc2)C(C)=O)c(O)c(OC)c2occc12
inactive: [1] > 100 µM | [2] 74.1 µM | [3] 82.4 µM | [10] 22.6 µM | [4] 9.38 µM | [13] 37.5 µM | [5] > 100 µM | [14] 25.4 µM | [15] 18.5 µM | [16] 34 µM | [6] 41.8 µM | [17] 56.5 µM | [18] 27 µM | [11] 17.2 µM | [7] 35.8 µM | [8] 77.1 µM | [12] 34.9 µM

C=CNC(=S)n1nc(-c2ccccc2NC(=O)C(F)(F)F)c(=O)n(C(=S)NC=C)c1=S
inactive: [1] 23.1 µM | [2] 24.9 µM | [3] 47.9 µM | [4] 10.5 µM | [5] 34.6 µM | [6] 11.2 µM | [7] 16.4 µM | [8] > 100 µM
